Results from patent US20220204539A1, “CD73 INHIBITORS” (BioArdis LLC, priority 2019, published 2022).

What follows are molecules tested against T1, Recombinant Human 5′-Nucleotidase (CD73) (Homo sapiens, UniProt P21589) (assay: CD73 Enzyme Assay). Conditions: human CD73 0.5 nM, AMP 30 μM, PiColorLock phosphate detection; read-out: Potency (IC50, CD73 enzyme assay).
T1 construct: CHO derived CD73 (Trp27-Lys547), with a C-terminal 6-His tag; 6-His (C); purchased R&D 5795-EN; host or cells: CHO
T1 sequence (P21589 27-547): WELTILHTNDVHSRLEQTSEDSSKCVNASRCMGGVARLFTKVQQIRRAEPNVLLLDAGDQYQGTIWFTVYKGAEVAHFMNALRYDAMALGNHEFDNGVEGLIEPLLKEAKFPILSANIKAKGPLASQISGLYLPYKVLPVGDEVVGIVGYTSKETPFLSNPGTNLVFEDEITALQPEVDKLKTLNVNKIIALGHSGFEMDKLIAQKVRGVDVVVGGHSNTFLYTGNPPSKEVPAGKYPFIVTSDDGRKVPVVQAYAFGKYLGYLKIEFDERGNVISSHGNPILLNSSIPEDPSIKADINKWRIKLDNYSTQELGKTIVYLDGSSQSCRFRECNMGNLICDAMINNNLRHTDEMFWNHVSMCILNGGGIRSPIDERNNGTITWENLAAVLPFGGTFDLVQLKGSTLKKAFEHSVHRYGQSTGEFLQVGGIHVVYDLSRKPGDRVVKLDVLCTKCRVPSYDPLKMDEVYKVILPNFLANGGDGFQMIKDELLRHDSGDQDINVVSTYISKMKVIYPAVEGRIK
Type: biochemical
Source text: Soluble recombinant CD73 catalyzes the conversion of adenosine monophosphate (AMP) to adenosine and inorganic phosphate. The phosphate detection reagent, PiColorLock™ (Innova Bioscience, Cat #303-0125) is based on the change in absorbance of the dye malachite green in the presence of inorganic phosphate (Pi) and this property can be exploited to measure any enzyme that generates Pi. Recombinant Human 5′-Nucleotidase (CD73) (R&D #5795-EN, CHO derived CD73 (Trp27-Lys547), with a C-terminal 6-His tag) was used in the enzymatic assay. This assay was run in a 384-well plate format (Corning® NBS™ 384 well plates, Cat #3640). The basic assay procedure involves two steps: 1) Enzyme reaction: The CD73 enzyme (R&D #5795-EN) is incubated in the presence or absence of compounds. AMP (sigma, cat #01930) is added to start the […] reaction. 2) Detection step: Gold mix is added to the assay system, then stabilizers are added. After incubation the absorbance of the solution is read at OD 635 nm. The recorded OD signal is proportional to the enzyme activity.
Briefly, 25 μl human CD73 (0.5 nM final concentration) in the enzymatic buffer solutions (20 mM Tris, 25 mM NaCl, 1 mM MgCl2, pH 7.5, 0.005% Tween-20) were mixed with various concentrations of the test compound (dissolved in 100% DMSO). These solutions were incubated for 15 min at 25° C., and subsequently 25 μl AMP (30 μM final concentration) was added to start the reaction. The final reaction mixture of enzyme-substrate-compound was incubated for 20 min at 37° C. Meanwhile ‘Gold mix’ was prepared shortly before use by adding 1/100 vol. of accelerator to the PiColorLock™ Gold reagent. 12 μL/well of the ‘Gold mix’ was added to assay plate containing 50 μL enzyme reaction buffer and incubated at 25° C. for 5 min. 5 μL/well stabilizer was added to the assay plate and incubated at 25° C. for 30 min. The absorbance of the well solutions was measured at 635 nm on a Spark 10M instrument (TECAN).
The percent (%) inhibition at each concentration of a compound was calculated relative to the OD value in the Max and Min control wells contained within each assay plate. The Max control wells contained enzyme and substrate as 0% inhibition, and the M control wells only contained substrate without enzyme as 100% inhibition. The concentrations and percent inhibition values for a test compound are plotted and the concentration of the compound required to achieve 50% inhibition (IC50) was determined with a four-parameter logistic dose response equation.

IC50	Structure (SMILES)
> 1 µM	O=P(O)(O)CP(=O)(O)OC[C@H]1OC(c2cnc3c(NCc4ccccc4)ncnn23)[C@@H](F)[C@@H]1O (stereo in doubt) [Compound 3, [({[(2R,3R,4S,5S)-5-[4-(benzylamino)imidazo[2,1-f][1,2,4]triazin-7-yl]-4-fluoro-3-hydroxyoxolan-2-yl]methoxy}(hydroxy)phosphoryl)methyl]phosphonic Acid]
> 1 µM	O=P(O)(O)CP(=O)(O)OC[C@H]1O[C@H](c2cnc3c(NCc4ccccc4)ncnn23)[C@@H](F)[C@@H]1O [Compound 4, [({[(2R,3R,4S,5R)-5-[4-(benzylamino)imidazo[2,1-f][1,2,4]triazin-7-yl]-4-fluoro-3-hydroxyoxolan-2-yl]methoxy}(hydroxy)phosphoryl)methyl]phosphonic Acid]
0.01 to 0.099 µM	O=P(O)(O)CP(=O)(O)OC[C@H]1O[C@@H](c2cnc3c(NC4CCCC4)nc(Cl)nn23)[C@@H](F)[C@@H]1O [Compound 7, (((((2R,3R,4S,5S)-5-(2-chloro-4-(cyclopentylamino)imidazo[2,1-f][1,2,4]triazin-7-yl)-4-fluoro-3-hydroxytetrahydrofuran-2-yl)methoxy)(hydroxy)phosphoryl)methyl)phosphonic acid]
0.01 to 0.099 µM	O=P(O)(O)CP(=O)(O)OC[C@H]1O[C@@H](c2cnc3c(NCC4CCCO4)nc(Cl)nn23)[C@H](O)[C@@H]1O (stereo partly drawn) [Compound 13, (((((2R,3S,4R,1S)-5-(2-chloro-4-(((tetrahydrofuran-2-yl)methyl)amino)imidazo[2,1-f][1,2,4]triazin-7-yl)-3,4-dihydroxytetrahydrofuran-2-yl)methoxy)(hydroxy)phosphoryl)methyl) phosphonic Acid]
0.01 to 0.099 µM	CN(C)[C@H]1CC[C@H](Nc2nc(Cl)nn3c([C@@H]4O[C@H](COP(=O)(O)CP(=O)(O)O)[C@@H](O)[C@H]4O)cnc23)C1 [Compound 25, (((((2R,3S,4R,5S)-5-(2-chloro-4-(((1S,3S)-3-(dimethylamino)cyclopentyl)amino)imidazo[2,1-f][1,2,4]triazin-7-yl)-3,4-dihydroxytetrahydrofuran-2-yl)methoxy)(hydroxy)phosphoryl)methyl)phosphonic acid]
0.01 to 0.099 µM	O=C1C[C@H](Nc2nc(Cl)nn3c([C@@H]4O[C@H](COP(=O)(O)CP(=O)(O)O)[C@@H](O)[C@H]4O)cnc23)CN1 [Compound 26, [({[(2R,3S,4R,5S)-5-{2-chloro-4-[(5-oxopyrrolidin-3-yl)amino]imidazo[2,1-f][1,2,4]triazin-7-yl}-3,4-dihydroxyoxolan-2-yl]methoxy}(hydroxy)phosphoryl)methyl]phosphonic acid]
0.01 to 0.099 µM	O=P(O)(O)CP(=O)(O)OC[C@H]1O[C@@H](c2cnc3c(N4CCC[C@@H]4c4ccccc4)nc(Cl)nn23)[C@H](O)[C@@H]1O [Compound 31, [({[(2R,3S,4R,5S)-5-{2-chloro-4-[(2R)-2-phenylpyrrolidin-1-yl]imidazo[2,1-f][1,2,4]triazin-7-yl}-3,4-dihydroxyoxolan-2-yl]methoxy}(hydroxy)phosphoryl)methyl]phosphonic Acid]
0.01 to 0.099 µM	CC(C)(C)[C@@H]1CCCN1c1nc(Cl)nn2c([C@@H]3O[C@H](COP(=O)(O)CP(=O)(O)O)[C@@H](O)[C@H]3O)cnc12 [Compound 38, (((((2R,3S,4R,1S)-5-(4-((S)-2-(tert-butyl)pyrrolidin-1-yl)-2-chloroimidazo[2,1-f][1,2,4]triazin-7-yl)-3,4-dihydroxytetrahydrofuran-2-yl)methoxy)(hydroxy)phosphoryl)methyl)phosphonic Acid]
0.01 to 0.099 µM	CC(C)(C)[C@H]1CCCN1c1nc(Cl)nn2c([C@@H]3O[C@H](COP(=O)(O)CP(=O)(O)O)[C@@H](O)[C@H]3O)cnc12 [Compound 51, (((((2R,3S,4R,1S)-5-(4-((R)-2-(tert-butyl)pyrrolidin-1-yl)-2-chloroimidazo[2,1-f][1,2,4]triazin-7-yl)-3,4-dihydroxytetrahydrofuran-2-yl)methoxy)(hydroxy)phosphoryl)methyl)phosphonic Acid]
